Read-outs that look alike come from different tables or passages of the source.
What was measured:
Assay type in all cases: cell-based
[1] = molecular target: T1, 168 GPCRs (Homo sapiens, UniProt P21918)
T1 construct: host or cells: PathHunter cell lines

[2] = molecular target: T2, 168 GPCRs (Homo sapiens, UniProt P35462)
T2 construct: host or cells: PathHunter cell lines

[3] = molecular target: T3, 168 GPCRs (Homo sapiens, UniProt P32745); conditions: SSTR3
T3 construct: host or cells: PathHunter cell lines

[4] = molecular target: T4, 168 GPCRs (Homo sapiens, UniProt P16473); conditions: TSHR(L)
T4 construct: host or cells: PathHunter cell lines

[5] = molecular target: T5, 168 GPCRs (Homo sapiens, UniProt P47901); conditions: AVPR1B
T5 construct: host or cells: PathHunter cell lines
T5 sequence (P47901 1-424): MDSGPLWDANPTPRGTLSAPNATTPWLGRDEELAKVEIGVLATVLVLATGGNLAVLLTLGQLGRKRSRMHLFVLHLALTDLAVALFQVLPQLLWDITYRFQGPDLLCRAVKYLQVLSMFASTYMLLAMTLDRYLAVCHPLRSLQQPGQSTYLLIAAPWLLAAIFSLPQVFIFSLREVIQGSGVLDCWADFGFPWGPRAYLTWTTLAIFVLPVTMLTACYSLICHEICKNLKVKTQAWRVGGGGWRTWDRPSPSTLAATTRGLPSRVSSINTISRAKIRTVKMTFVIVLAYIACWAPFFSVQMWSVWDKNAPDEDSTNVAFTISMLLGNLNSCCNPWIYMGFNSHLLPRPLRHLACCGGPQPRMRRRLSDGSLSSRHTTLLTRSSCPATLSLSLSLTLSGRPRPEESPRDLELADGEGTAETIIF

[6] = molecular target: T6, 168 GPCRs (Homo sapiens, UniProt P25105); conditions: PTAFR
T6 construct: host or cells: PathHunter cell lines

[7] = molecular target: T7, 168 GPCRs (Homo sapiens, UniProt P51681)
T7 construct: host or cells: PathHunter cell lines

[8] = molecular target: T8, 168 GPCRs (Homo sapiens, UniProt P35368); conditions: ADRA1B
T8 construct: host or cells: PathHunter cell lines
T8 sequence (P35368 1-520): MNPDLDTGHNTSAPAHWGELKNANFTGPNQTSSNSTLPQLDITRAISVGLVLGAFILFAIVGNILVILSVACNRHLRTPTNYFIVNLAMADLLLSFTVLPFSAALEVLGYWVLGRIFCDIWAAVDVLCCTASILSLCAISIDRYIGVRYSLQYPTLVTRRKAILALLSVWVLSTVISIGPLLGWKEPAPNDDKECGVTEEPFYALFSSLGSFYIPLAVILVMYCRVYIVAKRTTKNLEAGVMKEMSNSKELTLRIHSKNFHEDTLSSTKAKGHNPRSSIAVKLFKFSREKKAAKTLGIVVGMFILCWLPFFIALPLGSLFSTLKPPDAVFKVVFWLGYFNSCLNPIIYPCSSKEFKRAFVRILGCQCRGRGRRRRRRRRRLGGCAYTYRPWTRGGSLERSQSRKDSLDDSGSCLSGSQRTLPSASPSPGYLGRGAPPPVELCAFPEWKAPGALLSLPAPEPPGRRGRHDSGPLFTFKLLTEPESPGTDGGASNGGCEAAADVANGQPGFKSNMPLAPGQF

[9] = molecular target: T9, 168 GPCRs (Homo sapiens, UniProt Q96LB2)
T9 construct: host or cells: PathHunter cell lines

[10] = molecular target: T10, 168 GPCRs (Homo sapiens, UniProt P25101); conditions: EDNRA
T10 construct: host or cells: PathHunter cell lines
T10 sequence (P25101 21-427): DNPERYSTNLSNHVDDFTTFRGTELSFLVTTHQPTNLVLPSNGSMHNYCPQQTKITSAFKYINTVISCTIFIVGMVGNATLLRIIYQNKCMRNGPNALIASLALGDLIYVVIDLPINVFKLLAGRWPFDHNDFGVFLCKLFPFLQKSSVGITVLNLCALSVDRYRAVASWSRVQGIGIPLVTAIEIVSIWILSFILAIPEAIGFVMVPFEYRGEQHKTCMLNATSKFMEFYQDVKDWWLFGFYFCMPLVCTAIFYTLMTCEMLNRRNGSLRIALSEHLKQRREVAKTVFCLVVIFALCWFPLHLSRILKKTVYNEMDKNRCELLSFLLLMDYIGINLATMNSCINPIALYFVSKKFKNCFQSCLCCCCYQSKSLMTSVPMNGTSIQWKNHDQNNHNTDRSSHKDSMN

T4 sequence (P16473 21-764): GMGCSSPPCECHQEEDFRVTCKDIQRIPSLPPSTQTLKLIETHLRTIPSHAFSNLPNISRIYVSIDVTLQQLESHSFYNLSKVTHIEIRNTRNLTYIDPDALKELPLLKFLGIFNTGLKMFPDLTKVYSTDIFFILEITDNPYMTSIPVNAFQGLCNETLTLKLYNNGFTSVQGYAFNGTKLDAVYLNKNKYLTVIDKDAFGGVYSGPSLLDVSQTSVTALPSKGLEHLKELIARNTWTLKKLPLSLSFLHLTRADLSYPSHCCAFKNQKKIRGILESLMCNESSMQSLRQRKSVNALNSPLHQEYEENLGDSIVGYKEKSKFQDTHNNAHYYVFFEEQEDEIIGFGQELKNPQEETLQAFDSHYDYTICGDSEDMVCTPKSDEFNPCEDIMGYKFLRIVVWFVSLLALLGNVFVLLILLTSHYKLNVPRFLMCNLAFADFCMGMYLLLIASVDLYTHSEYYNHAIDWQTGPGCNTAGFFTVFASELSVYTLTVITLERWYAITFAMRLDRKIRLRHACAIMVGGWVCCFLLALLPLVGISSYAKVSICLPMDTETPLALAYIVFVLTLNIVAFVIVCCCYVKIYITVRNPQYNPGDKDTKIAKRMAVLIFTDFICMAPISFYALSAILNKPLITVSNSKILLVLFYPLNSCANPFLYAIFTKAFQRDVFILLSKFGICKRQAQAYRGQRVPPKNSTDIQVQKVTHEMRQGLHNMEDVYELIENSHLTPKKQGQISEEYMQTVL
T2 sequence (P35462 whole entry): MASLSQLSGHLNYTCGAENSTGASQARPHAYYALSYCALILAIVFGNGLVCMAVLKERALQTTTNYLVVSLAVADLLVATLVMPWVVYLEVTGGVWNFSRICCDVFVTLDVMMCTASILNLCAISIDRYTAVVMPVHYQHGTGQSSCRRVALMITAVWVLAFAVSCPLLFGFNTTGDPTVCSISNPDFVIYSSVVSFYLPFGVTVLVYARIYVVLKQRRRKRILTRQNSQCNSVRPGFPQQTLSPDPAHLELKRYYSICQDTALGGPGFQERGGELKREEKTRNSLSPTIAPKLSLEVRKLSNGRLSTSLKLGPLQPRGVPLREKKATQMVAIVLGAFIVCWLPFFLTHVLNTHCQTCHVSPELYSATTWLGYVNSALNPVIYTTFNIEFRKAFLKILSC
T1 sequence (P21918 whole entry): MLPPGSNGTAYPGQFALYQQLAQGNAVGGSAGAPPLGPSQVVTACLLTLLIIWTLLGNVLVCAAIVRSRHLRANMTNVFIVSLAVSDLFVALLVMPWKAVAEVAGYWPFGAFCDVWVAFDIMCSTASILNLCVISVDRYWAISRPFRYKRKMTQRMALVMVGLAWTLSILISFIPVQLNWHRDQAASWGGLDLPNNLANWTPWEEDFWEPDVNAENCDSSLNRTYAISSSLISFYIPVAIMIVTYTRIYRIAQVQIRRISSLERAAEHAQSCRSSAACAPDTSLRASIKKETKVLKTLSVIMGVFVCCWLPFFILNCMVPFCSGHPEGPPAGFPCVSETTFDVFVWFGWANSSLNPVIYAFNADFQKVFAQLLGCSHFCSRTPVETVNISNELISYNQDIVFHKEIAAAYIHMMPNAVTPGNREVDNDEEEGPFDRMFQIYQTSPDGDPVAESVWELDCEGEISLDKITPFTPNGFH
T7 sequence (P51681 whole entry): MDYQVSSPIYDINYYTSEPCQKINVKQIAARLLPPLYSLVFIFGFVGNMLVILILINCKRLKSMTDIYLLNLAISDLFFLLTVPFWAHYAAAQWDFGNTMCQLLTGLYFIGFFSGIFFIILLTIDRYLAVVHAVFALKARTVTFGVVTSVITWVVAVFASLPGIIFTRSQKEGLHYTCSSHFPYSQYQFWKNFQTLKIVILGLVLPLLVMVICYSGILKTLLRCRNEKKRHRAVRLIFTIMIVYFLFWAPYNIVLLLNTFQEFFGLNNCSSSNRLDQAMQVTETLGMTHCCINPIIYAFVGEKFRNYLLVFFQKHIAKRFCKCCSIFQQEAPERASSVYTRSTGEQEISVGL
T6 sequence (P25105 whole entry): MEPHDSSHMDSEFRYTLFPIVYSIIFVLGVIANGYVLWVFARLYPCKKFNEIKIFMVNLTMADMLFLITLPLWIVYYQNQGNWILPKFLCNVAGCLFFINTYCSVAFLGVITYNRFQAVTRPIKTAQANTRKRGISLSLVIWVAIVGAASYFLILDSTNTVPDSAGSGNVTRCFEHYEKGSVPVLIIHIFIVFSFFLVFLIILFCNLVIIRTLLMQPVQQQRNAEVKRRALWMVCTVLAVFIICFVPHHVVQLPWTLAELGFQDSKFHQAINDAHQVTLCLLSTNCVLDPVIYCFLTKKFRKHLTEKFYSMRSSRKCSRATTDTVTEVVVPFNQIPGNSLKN
T9 sequence (Q96LB2 whole entry): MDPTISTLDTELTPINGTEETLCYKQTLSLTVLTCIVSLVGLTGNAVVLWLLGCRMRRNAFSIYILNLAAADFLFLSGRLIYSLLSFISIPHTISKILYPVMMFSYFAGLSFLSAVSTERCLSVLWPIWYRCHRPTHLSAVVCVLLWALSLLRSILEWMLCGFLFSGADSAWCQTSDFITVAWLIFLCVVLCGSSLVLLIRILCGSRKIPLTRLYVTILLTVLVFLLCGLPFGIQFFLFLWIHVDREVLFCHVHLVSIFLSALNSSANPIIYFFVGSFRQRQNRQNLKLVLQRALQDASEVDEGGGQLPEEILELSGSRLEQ
T3 sequence (P32745 whole entry): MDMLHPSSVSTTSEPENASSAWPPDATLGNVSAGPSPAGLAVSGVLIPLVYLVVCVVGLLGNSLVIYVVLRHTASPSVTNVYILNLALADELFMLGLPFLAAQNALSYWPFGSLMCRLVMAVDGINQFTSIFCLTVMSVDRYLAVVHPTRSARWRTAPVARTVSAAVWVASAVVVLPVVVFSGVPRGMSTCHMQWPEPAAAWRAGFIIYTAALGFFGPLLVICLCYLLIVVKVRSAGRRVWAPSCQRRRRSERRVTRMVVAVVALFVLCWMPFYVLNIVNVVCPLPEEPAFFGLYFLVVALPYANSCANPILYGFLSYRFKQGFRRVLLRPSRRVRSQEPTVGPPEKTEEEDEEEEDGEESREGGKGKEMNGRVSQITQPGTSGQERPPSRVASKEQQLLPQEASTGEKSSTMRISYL

| SMILES | % Agonist Activity ([1]; DRD5, 1 uM) | % Antagonist Activity ([1]; DRD5, 1 uM) | % Agonist Activity ([1]; DRD5, 10 uM) | % Antagonist Activity ([1]; DRD5, 10 uM) | % Agonist Activity ([2]; DRD3, 1 uM) | % Antagonist Activity ([2]; DRD3, 1 uM) | % Agonist Activity ([2]; DRD3, 10 uM) | % Antagonist Activity ([2]; DRD3, 10 uM) | % Agonist Activity ([3]; Conc 1 uM) | % Antagonist Activity ([3]; Conc 1 uM) | % Agonist Activity ([3]; Conc 10 uM) | % Antagonist Activity ([3]; Conc 10 uM) | % Agonist Activity ([4]; Conc 1 uM) | % Antagonist Activity ([4]; Conc 1 uM) | % Agonist Activity ([4]; Conc 10 uM) | % Antagonist Activity ([4]; Conc 10 uM) | % Agonist Activity ([5]; 1 uM) | % Antagonist Activity ([5]; 1 uM) | % Agonist Activity ([5]; 10 uM) | % Antagonist Activity ([5]; 10 uM) | further results |
| --- | --- | --- | --- | --- | --- | --- | --- | --- | --- | --- | --- | --- | --- | --- | --- | --- | --- | --- | --- | --- | --- |
| CNC(C)Cc1ccc2c(c1)OCO2 (centres unmarked) [MDMA, 3,4-Methylenedioxy methamphetamine, reference compound] | 1.7% | 10.8% | 1.4% | 10.5% | 7.1% | 9.6% | 7.3% | 10.6% | 2.9% | 3.7% | 0.1% | -0.9% | -0.6% | -8% | 2.8% | -5% | -1% | 8.1% | -1.8% | 0.8% | % Agonist Activity ([6]; Conc 1 uM): 0.6%; % Antagonist Activity ([6]; Conc 1 uM): 11.4%; % Agonist Activity ([6]; Conc 10 uM): 0.4%; % Antagonist Activity ([6]; Conc 10 uM): 12.1%; % Agonist Activity ([7]; CCR5, 1 uM): 0.2%; % Antagonist Activity ([7]; CCR5, 1 uM): 4.5%; % Agonist Activity ([7]; CCR5, 10 uM): 0.1%; % Antagonist Activity ([7]; CCR5, 10 uM): 9.8%; % Agonist Activity ([8]; 1 uM): -1.6%; % Antagonist Activity ([8]; 1 uM): 18.7%; % Agonist Activity ([8]; 10 uM): -1.6%; % Antagonist Activity ([8]; 10 uM): 35.1%; % Agonist Activity ([9]; MRGPRX1, 1 uM): 0.2%; % Antagonist Activity ([9]; MRGPRX1, 1 uM): 5.1%; % Agonist Activity ([9]; MRGPRX1, 10 uM): -0.4%; % Antagonist Activity ([9]; MRGPRX1, 10 uM): 7.6%; % Agonist Activity ([10]; 1 uM): -1.1%; % Antagonist Activity ([10]; 1 uM): 2.5%; % Agonist Activity ([10]; 10 uM): -1.9%; % Antagonist Activity ([10]; 10 uM): 4.6% |
| CNC(C)C(=O)c1ccc2c(c1)OCO2 (centres unmarked) [methylone] | -0.1% | -5.9% | -0.2% | -2.6% | 2.2% | -12% | 2.3% | -17.8% | 0.7% | 13.2% | 0.3% | 8% | -1.2% | 6.1% | 0.7% | -6.6% | -1.2% | 9.8% | -1.1% | 3.5% | % Agonist Activity ([6]; Conc 1 uM): -1.3%; % Antagonist Activity ([6]; Conc 1 uM): 2%; % Agonist Activity ([6]; Conc 10 uM): -2.6%; % Antagonist Activity ([6]; Conc 10 uM): -6.7%; % Agonist Activity ([7]; CCR5, 1 uM): -0.1%; % Antagonist Activity ([7]; CCR5, 1 uM): 1.7%; % Agonist Activity ([7]; CCR5, 10 uM): 0.3%; % Antagonist Activity ([7]; CCR5, 10 uM): -0.5%; % Agonist Activity ([8]; 1 uM): -3.3%; % Antagonist Activity ([8]; 1 uM): 17.9%; % Agonist Activity ([8]; 10 uM): -2.9%; % Antagonist Activity ([8]; 10 uM): 20.6%; % Agonist Activity ([9]; MRGPRX1, 1 uM): -1.7%; % Antagonist Activity ([9]; MRGPRX1, 1 uM): -6.5%; % Agonist Activity ([9]; MRGPRX1, 10 uM): -1.5%; % Antagonist Activity ([9]; MRGPRX1, 10 uM): -10.2%; % Agonist Activity ([10]; 1 uM): 0.3%; % Antagonist Activity ([10]; 1 uM): -2.4%; % Agonist Activity ([10]; 10 uM): 1.4%; % Antagonist Activity ([10]; 10 uM): -11.3% |

— publication PMC10882719 (Frontiers in Neuroscience, 2024)
